Source: US7585859B2, “PDE4B inhibitors and uses therefor” (Plexxikon, Inc., priority 2004, dated 2009)

Experiments:
Type in all cases: biochemical
[1] = target: T1, full-length human PDE4B2 isozyme (Homo sapiens, UniProt Q07343); experiment: PDE4 IC50 determination by Scintillation Proximity Assay, PDE4B2; conditions: Table 1B, Formula I compounds; read-out: IC50 PDE4B2
T1 construct: The full-length human PDE4B2 isozyme; His6 (N); TEV cleavage site (N); made in house; host or cells: baculovirus infected insect cells (unpurified lysate)
Experimental: (§1) IC50s were determined by Scintillation Proximity Assay (SPA). The principle of the assay is based on the fact that cAMP, the PDE4 substrate, binds weakly to Yittrium Silicate SPA beads, whereas AMP, the product of PDE4 hydrolysis binds strongly. Thus, the extent of PDE4 hydrolysis of a sample of [^3H]cAMP can be measured because only the
(§2) [^3H]AMP produced by PDE4 hydrolysis will bind to the SPA beads and produce a scintillation signal.
(§3) PDE4 enzymes used for IC50 assays were:
PDE4B2: The full-length human PDE4B2 isozyme with an N-terminal His6 tag (SEQ ID NO: 18) and TEV cleavage site expressed in baculovirus infected insect cells. The enzyme was not purified from the cell lysates, so enzyme concentrations were not determined. Enzyme was stored in 50% glycerol at −20°.
(§4) Compounds tested (see Tables 3B, 4B and 5A for compounds and results) were 3-fold serially diluted 11 times in DMSO from a starting concentration of 4 mM or 40 μM, depending on compound potency. 1 μl of each dilution was transferred into duplicate wells of a white polystyrene 384-well assay plate (Coming #3705). In addition to the compound dilutions, each assay plate contained control wells with 1 μl of DMSO (to define 0% enzyme inhibition) or 1 μl of 200 μM roflumilast (to define 100% enzyme inhibition). Using a Beckman FX robot, 10 μl of [^3H] cAMP (Amersham TRK559) at 2 mCi/ml in assay buffer (50 mM Tris, pH 7.5; 8.3 mM MgCl; 1.7 mM EGTA; 0.01% BSA) was transferred to each assay well. Next, 10 μl of PDE4 enzyme in assay buffer was added and the plates were shaken for 30 s. at 1000 rpm to start the cAMP hydrolysis reaction. The concentrations of enzyme used were: PDE4B, 80 ng/ml; PDE4D, 4 ng/ml; PDE4B2, 2.5 μl of 50% glycerol stock/ml; PDE4D5 0.083 μl of 50% glycerol stock/ml. Assay plates were covered and incubated for 30 min. at 30°. Reactions were stopped by robotic addition of 10 μl of 5 mg/ml SPA beads (Amersham RPNQ0013) in 18 mM ZnSO4. The assay plates were covered with clear plastic film, centrifuged for 1 min. at 1000 RPM to settle the SPA beads, and counted using a Wallac TriLux scintillation counter. IC50's were calculated from the raw assay data by non-linear regression curve fitting using the Assay Explorer software package from MDL.

[2] = target: T2, full-length human PDE4D5 isozyme (Homo sapiens, UniProt Q08499); experiment: PDE4 IC50 determination by Scintillation Proximity Assay, PDE4D5; conditions: Table 1B, Formula I compounds; read-out: IC50 PDE4D5
T2 construct: The full-length human PDE4D5 isozyme; His6 (N); TEV cleavage site (N); made in house; host or cells: baculovirus infected insect cells (unpurified lysate)
Experimental: as §1, §2, §3
PDE4D5: The full-length human PDE4D5 isozyme with an N-terminal His6 tag (SEQ ID NO: 18) and TEV cleavage site expressed in baculovirus infected insect cells. The enzyme was not purified from the cell lysates, so enzyme concentrations were not determined. Enzyme was stored in 50% glycerol at −20°.
as §4

[3] = target: T3, PDE4B: The catalytic domain of human PDE4B from S152-S528 (Homo sapiens, UniProt Q07343); experiment: PDE4 IC50 determination by Scintillation Proximity Assay, PDE4B; conditions: Table 1B, Formula I compounds; read-out: IC50 PDE4B
T3 construct: His6 (N); thrombin cleavage site (N); made in house; host or cells: E. coli
Outline: (§5)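 Hydrolysis of [^3H]cAMP measured by SPA with yttrium silicate beads, which bind the [^3H]AMP product strongly and cAMP weakly. Enzyme at 80 ng/ml for PDE4B, 4 ng/ml for PDE4D; 30 min at 30°.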

[4] = target: T4, PDE4D (Homo sapiens, UniProt Q08499); experiment: PDE4 IC50 determination by Scintillation Proximity Assay, PDE4D; conditions: Table 1B, Formula I compounds; read-out: IC50 PDE4D
T4 construct: PDE4D: The catalytic domain of human PDE4B from S3 16-V692; His6 (N); thrombin cleavage site (N); made in house; host or cells: E. coli
Outline: as §5

T2 sequence (Q08499 1-745 isoform Q08499-6): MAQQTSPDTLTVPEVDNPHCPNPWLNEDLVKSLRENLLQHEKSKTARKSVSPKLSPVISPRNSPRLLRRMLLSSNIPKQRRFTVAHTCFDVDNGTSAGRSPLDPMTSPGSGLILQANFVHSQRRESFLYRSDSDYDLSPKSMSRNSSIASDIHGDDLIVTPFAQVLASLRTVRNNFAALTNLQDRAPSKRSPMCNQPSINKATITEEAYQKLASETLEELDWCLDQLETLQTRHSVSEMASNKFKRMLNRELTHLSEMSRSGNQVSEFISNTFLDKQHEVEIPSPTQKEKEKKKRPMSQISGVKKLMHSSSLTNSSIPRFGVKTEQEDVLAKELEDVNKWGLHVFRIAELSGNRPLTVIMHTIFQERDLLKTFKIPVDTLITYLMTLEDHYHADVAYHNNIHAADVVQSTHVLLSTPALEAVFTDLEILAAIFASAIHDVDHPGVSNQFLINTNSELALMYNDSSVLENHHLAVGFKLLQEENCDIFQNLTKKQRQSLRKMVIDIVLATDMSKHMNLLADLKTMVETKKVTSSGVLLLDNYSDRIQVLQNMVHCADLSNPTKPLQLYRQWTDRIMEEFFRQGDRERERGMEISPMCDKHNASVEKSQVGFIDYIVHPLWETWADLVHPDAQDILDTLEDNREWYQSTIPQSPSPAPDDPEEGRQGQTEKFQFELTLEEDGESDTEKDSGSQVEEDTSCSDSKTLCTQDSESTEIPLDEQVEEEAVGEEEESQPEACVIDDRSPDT
T1 sequence (Q07343 1-564 isoform Q07343-2): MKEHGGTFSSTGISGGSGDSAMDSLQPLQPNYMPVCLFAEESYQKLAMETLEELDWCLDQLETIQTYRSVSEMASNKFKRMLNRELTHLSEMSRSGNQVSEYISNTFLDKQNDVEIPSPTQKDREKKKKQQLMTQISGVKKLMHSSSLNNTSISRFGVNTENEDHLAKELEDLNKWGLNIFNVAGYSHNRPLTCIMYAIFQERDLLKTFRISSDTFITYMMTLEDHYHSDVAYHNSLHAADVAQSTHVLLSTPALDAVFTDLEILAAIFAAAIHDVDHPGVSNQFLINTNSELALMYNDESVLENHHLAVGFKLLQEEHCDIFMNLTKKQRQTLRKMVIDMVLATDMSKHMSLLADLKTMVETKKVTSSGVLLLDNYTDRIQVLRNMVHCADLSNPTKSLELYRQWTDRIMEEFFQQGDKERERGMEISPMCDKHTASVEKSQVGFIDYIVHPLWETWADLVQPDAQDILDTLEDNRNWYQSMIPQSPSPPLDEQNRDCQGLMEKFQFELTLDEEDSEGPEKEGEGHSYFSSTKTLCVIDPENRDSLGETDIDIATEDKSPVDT
T4 sequence (Q08499 380-756): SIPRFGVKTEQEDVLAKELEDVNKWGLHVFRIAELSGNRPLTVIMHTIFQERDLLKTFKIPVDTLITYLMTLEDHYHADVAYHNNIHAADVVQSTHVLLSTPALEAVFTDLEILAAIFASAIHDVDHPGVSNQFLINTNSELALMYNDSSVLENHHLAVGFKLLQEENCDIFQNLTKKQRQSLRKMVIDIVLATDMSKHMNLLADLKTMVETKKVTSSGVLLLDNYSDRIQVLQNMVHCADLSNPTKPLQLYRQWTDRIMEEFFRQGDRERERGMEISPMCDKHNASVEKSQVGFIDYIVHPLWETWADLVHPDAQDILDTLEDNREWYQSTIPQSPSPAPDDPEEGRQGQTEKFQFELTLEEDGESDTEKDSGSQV
T3 sequence (Q07343 with tags, fused parts or gaps): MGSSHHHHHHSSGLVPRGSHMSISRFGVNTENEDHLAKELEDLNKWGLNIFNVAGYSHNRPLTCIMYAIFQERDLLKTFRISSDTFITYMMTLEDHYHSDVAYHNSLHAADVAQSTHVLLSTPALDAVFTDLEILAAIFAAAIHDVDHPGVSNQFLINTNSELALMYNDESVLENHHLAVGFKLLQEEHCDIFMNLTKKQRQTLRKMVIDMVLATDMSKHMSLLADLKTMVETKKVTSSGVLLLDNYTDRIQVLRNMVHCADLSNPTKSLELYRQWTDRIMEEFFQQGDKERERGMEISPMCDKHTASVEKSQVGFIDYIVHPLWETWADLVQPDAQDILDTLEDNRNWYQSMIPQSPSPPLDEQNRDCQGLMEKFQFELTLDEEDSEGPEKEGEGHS

IC50 [1] [µM]	IC50 [2] [µM]	IC50 [3] [µM]	IC50 [4] [µM]	Compound
< 10	< 10	< 10	< 10	COc1ccc(C(=O)c2sc(NC3CCCC3)c(C#N)c2N)c(OC)c1 [Compound 1-43, 4-Amino-2-cyclopentylamino-5-(2,4-dimethoxy-benzoyl)-thiophene-3-carbonitrile]
> 10	> 10	> 10	> 10	CC(C)CNc1sc(C(=O)c2cc(-c3ccc(Cl)c(Cl)c3)no2)c(N)c1C#N [Compound 1-226, 4-Amino-5-[3-(3,4-dichloro-phenyl)-isoxazole-5-carbonyl]-2-isobutylamino-thiophene-3-carbonitrile]
> 10	> 10	< 10	< 10	COc1ccc(Nc2sc(C(=O)c3ccc(-c4ccccn4)s3)c(N)c2C#N)cc1 [Compound 1-68, 4-Amino-2-(4-methoxy-phenylamino)-5-(5-pyridin-2-yl-thiophene-2-carbonyl)-thiophene-3-carbonitrile]
–	< 10	< 10	< 10	N#Cc1c(NC2CCCC2)sc(C(=O)c2cc(C(=O)NC3CC3)no2)c1N [Compound 1-190, 5-(3-Amino-4-cyano-5-cyclopentylamino-thiophene-2-carbonyl)-isoxazole-3-carboxylic acid cyclopropylamide]
< 10	< 10	< 10	< 10	COc1ccc(Nc2sc(C(=O)c3cnn(-c4ccccc4)c3C)c(N)c2C#N)cc1 [Compound 1-50, 4-Amino-2-(4-methoxy-phenylamino)-5-(5-methyl-1-phenyl-1H-pyrazole-4-carbonyl)-thiophene-3-carbonitrile]
< 10	< 10	< 10	–	Cc1c(Nc2ccccc2)sc(C(=O)c2ccc(Cl)cc2)c1N [Compound 1-238, (3-Amino-4-methyl-5-phenylamino-thiophen-2-yl)-(4-chloro-phenyl)-methanone]
< 10	< 10	< 10	< 10	COc1ccc(Nc2sc(C(=O)c3ccc(C)cc3C)c(N)c2C#N)cc1 [Compound 1-85]
> 10	> 10	> 10	> 10	N#Cc1c(NCc2cccc(Cl)c2)sc(C(=O)c2cc(-c3ccccc3)no2)c1N [Compound 1-214, 4-Amino-2-(3-chloro-benzylamino)-5-(3-phenyl-isoxazole-5-carbonyl)-thiophene-3-carbonitrile]
> 10	> 10	< 10	< 10	N#Cc1c(NCCN2CCOCC2)sc(C(=O)c2cc(-c3ccccc3)no2)c1N [Compound 1-213, 4-Amino-2-(2-morpholin-4-yl-ethylamino)-5-(3-phenyl-isoxazole-5-carbonyl)-thiophene-3-carbonitrile]
< 10	< 10	< 10	< 10	N#Cc1c(Nc2ccc(Cl)cc2)sc(C(=O)c2sccc2Cl)c1N [Compound 1-17, 4-Amino-2-(4-chloro-phenylamino)-5-(3-chloro-thiophene-2-carbonyl)-thiophene-3-carbonitrile]
< 10	> 10	> 10	> 10	N#Cc1c(Nc2ccco2)sc(C(=O)c2cc(-c3ccccc3)no2)c1N [Compound 1-208, 4-Amino-2-(furan-2-ylamino)-5-(3-phenyl-isoxazole-5-carbonyl)-thiophene-3-carbonitrile]
> 10	> 10	> 10	> 10	N#Cc1c(NCC2CC2)sc(C(=O)c2cc(-c3ccccc3)no2)c1N [Compound 1-206, 4-Amino-2-(cyclopropylmethyl-amino)-5-(3-phenyl-isoxazole-5-carbonyl)-thiophene-3-carbonitrile]
< 10	< 10	< 10	< 10	N#Cc1c(NC2CCCO2)sc(C(=O)c2cc(-c3ccccc3)no2)c1N (stereo not drawn) [Compound 1-210, 4-Amino-5-(3-phenyl-isoxazole-5-carbonyl)-2-(tetrahydro-furan-2-ylamino)-thiophene-3-carbonitrile]
> 10	> 10	> 10	> 10	N#Cc1c(Nc2ccc(Oc3ccccc3)cc2)sc(C(=O)c2cc(-c3ccccc3)no2)c1N [Compound 1-187, 4-Amino-2-(4-phenoxy-phenylamino)-5-(3-phenyl-isoxazole-5-carbonyl)-thiophene-3-carbonitrile]
< 10	< 10	< 10	< 10	N#Cc1c(NC2CCCC2)sc(C(=O)c2cc(-c3c(Cl)cccc3Cl)no2)c1N [Compound 1-211, 4-Amino-2-cyclopentylamino-5-[3-(2,6-dichloro-phenyl)-isoxazole-5-carbonyl]-thiophene-3-carbonitrile]
–	< 10	< 10	< 10	CC(C)NC(=O)c1cc(C(=O)c2sc(NC3CCCC3)c(C#N)c2N)on1 [Compound 1-189, 5-(3-Amino-4-cyano-5-cyclopentylamino-thiophene-2-carbonyl)-isoxazole-3-carboxylic acid isopropylamide]
< 10	> 10	< 10	–	CCc1c(Nc2ccc(Oc3ccccc3)cc2)sc(C(=O)c2ccccc2)c1N [Compound 1-243, [3-Amino-5-ethyl-5-(4-phenoxy-phenylamino)-thiophen-2-yl]-phenyl-methanone]
> 10	> 10	< 10	–	Cc1c(Nc2ccc(Oc3ccccc3)cc2)sc(C(=O)c2ccccc2)c1N [Compound 1-239, [3-Amino-4-methyl-5-(4-phenoxy-phenylamino)-thiophen-2-yl]-phenyl-methanone]
–	> 10	< 10	> 10	CC(C)C(C)Nc1sc(C(=O)c2cc(-c3ccc(Cl)c(Cl)c3)no2)c(N)c1C#N (stereo not drawn) [Compound 1-246, 4-Amino-5-[3-(3,4-dichloro-phenyl)-isoxazole-5-carbonyl]-2-(1,2-dimethyl-propylamino)-thiophene-3-carbonitrile]
–	> 10	< 10	< 10	COc1ccc(Nc2sc(C(=O)c3cc(-c4ccc(Cl)cc4Cl)no3)c(N)c2C#N)cc1 [Compound 1-164, 4-Amino-5-[3-(2,4-dichloro-phenyl)-isoxazole-5-carbonyl]-2-(4-methoxy-phenylamino)-thiophene-3-carbonitrile]
< 10	< 10	< 10	–	Nc1c(C(=O)c2cc(-c3ccccc3)no2)sc(NC2CCCC2)c1C(=O)O [Compound 1-237, 4-Amino-2-cyclopentylamino-5-(3-phenyl-isoxazole-5-carbonyl)-thiophene-3-carboxylic acid]
–	< 10	< 10	–	N#Cc1c(Nc2ccc(Oc3ccccc3)cc2)sc(C(=O)C2CCCC2)c1N [Compound 1-195, 4-Amino-5-cyclopentanecarbonyl-2-(4-phenoxy-phenylamino)-thiophene-3-carbonitrile]
